ChEMBL document CHEMBL1201862, “PubChem BioAssay data set” (2004)
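Step 1: Grow cells in 96-well plates. Step 2: Expose to compound for 48 hours at 5 concentrations. Step 3: Interpolate endpoints linearly; if unreached, use highest concentration. The concentration for 50% growth inhibition is given as GI50.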 The source made the active and inactive calls. No stated cut-off is given here; in the data, active = GI50 up to about 1.1 µM and inactive = higher. Residues, ends and D or L forms follow the SMILES beside them. *: point of attachment. Pentanoyl = CCCCC(=O)*; Boc = CC(C)(C)OC(=O)*

Assays:
Assay in all cases: inhibition of tumour cell growth, NCI panel, 48 h
[1] = test system: 786-0
[2] = test system: BT-549
[3] = test system: CAKI-1
[4] = test system: HCT-15
[5] = test system: HL-60
[6] = test system: Hs-578T
[7] = test system: K562
[8] = test system: MDA-N
[9] = test system: Malme-3M
[10] = test system: NCI-H23
[11] = test system: OVCAR-3
[12] = test system: OVCAR-4
[13] = test system: OVCAR-8
[14] = test system: RXF 393
[15] = test system: SF-539
[16] = test system: SK-MEL-28
[17] = test system: SK-OV-3
[18] = test system: SNB-19
[19] = test system: TK-10
[20] = test system: U-251

SMILES | GI50 [1] | GI50 [2] | GI50 [3] | GI50 [4] | GI50 [5] | GI50 [6] | GI50 [7] | GI50 [8] | GI50 [9] | GI50 [10] | GI50 [11] | GI50 [12] | GI50 [13] | GI50 [14] | GI50 [15] | GI50 [16] | GI50 [17] | GI50 [18] | GI50 [19] | GI50 [20]
COc1cc(C)c(C2NC(=O)c3ccccc3N2)cc1C (stereo not given) | 0.417 µM (active) | 0.476 µM (active) | 0.252 µM (active) | 0.217 µM | 0.1 µM (active) | 0.234 µM (active) | 0.125 µM (active) | 0.0283 µM (active) | 0.183 µM (active) | 2.51 µM (inactive) | 0.127 µM (active) | 0.342 µM (active) | 0.942 µM (active) | 0.358 µM (active) | 0.229 µM (active) | 0.59 µM (active) | 0.378 µM (active) | 0.468 µM (active) | 2.28 µM (inactive) | 0.396 µM (active)
NS(=O)(=O)c1ccc(NC(=O)N/N=C/c2ccccc2[N+](=O)[O-])cc1 | 45.6 µM (inactive) | 45.4 µM (inactive) | 44.8 µM (inactive) | 35 µM | 46.1 µM (inactive) | 46.6 µM (inactive) | 28.8 µM (inactive) | 19.4 µM (inactive) | 78.2 µM (inactive) | 41.6 µM (inactive) | 30.1 µM (inactive) | 59.8 µM (inactive) | 37.7 µM (inactive) | > 100 µM (inactive) | 38.5 µM (inactive) | 61.2 µM (inactive) | 45.5 µM (inactive) | 44 µM (inactive) | > 100 µM (inactive) | 43.1 µM (inactive)
COc1cc2c(cc1OC)[C@@](C)(C(O)C(O)C(C)(C)O)NCC2 (stereo not given in full) | > 100 µM (inactive) | > 100 µM (inactive) | > 100 µM (inactive) | > 100 µM | > 100 µM (inactive) | > 100 µM (inactive) | > 100 µM (inactive) | > 100 µM (inactive) | > 100 µM (inactive) | > 100 µM (inactive) | > 100 µM (inactive) | > 100 µM (inactive) | > 100 µM (inactive) | > 100 µM (inactive) | > 100 µM (inactive) | > 100 µM (inactive) | > 100 µM (inactive) | > 100 µM (inactive) | > 100 µM (inactive) | > 100 µM (inactive)
O=C(O)CC1OCC=C2C[N+]3([O-])CCC45c6ccccc6NC4C1C2CC53 (stereo not given) | > 100 µM (inactive) | > 100 µM (inactive) | > 100 µM (inactive) | > 100 µM | > 100 µM (inactive) | > 100 µM (inactive) | > 100 µM (inactive) | > 100 µM (inactive) | > 100 µM (inactive) | > 100 µM (inactive) | > 100 µM (inactive) | > 100 µM (inactive) | > 100 µM (inactive) | > 100 µM (inactive) | > 100 µM (inactive) | > 100 µM (inactive) | > 100 µM (inactive) | > 100 µM (inactive) | > 100 µM (inactive) | > 100 µM (inactive)
C1=N\c2ccc(cc2)-c2ccc(cc2)/N=C\c2ccccc2OCc2cccc(n2)COc2ccccc2/1 | 9.38 µM (inactive) | 32.7 µM (inactive) | > 58.5 µM (inactive) | > 100 µM | > 100 µM (inactive) | 13.1 µM (inactive) | > 100 µM (inactive) | > 100 µM (inactive) | > 82.8 µM (inactive) | 15.1 µM (inactive) | > 100 µM (inactive) | > 100 µM (inactive) | 31.8 µM (inactive) | 15.2 µM (inactive) | 26.7 µM (inactive) | 84.9 µM (inactive) | 30.1 µM (inactive) | 13.9 µM (inactive) | 26.6 µM (inactive) | 7.59 µM (inactive)
CCCCC(=O)Oc1ccc(CC(NC(=O)OC(C)(C)C)C(=O)NC(C)C(=O)NC(Cc2ccccc2)C(=O)NCC(N)=O)cc1 (stereo not given) (Boc-Y(Pentanoyl)AFG-NH2; configuration not given here) | 43.6 µM (inactive) | 23.7 µM (inactive) | > 100 µM (inactive) | > 100 µM | 26.4 µM (inactive) | 34.6 µM (inactive) | 46.3 µM (inactive) | 25.9 µM (inactive) | 31.6 µM (inactive) | 41 µM (inactive) | 20.4 µM (inactive) | 74.1 µM (inactive) | 16.8 µM (inactive) | 44.5 µM (inactive) | 33.3 µM (inactive) | 27.3 µM (inactive) | 32.6 µM (inactive) | 23.3 µM (inactive) | > 100 µM (inactive) | 20.5 µM (inactive)
